In brackets after ≈: the same amount, converted by molar mass. Activity calls are given as the source filed them. The calls are words filed in the database; no cut-off is given here. Square brackets hold non-standard residues; d marks the D form. Peptide text beside a SMILES is read from it. Orn = NCCC[C@H](N)C(=O)O

The results in this text go back to ChEMBL document CHEMBL4334431, “Gramicidin S-inspired antimicrobial cyclodextrin to disrupt gram-negative and gram-positive bacterial membranes” (Medchemcomm, 2019).

In data set [1] the test system is Escherichia coli. In words: Antibacterial activity against Escherichia coli K12 W3110 assessed as bacterial growth inhibition after 20 hrs by liquid microdilution method. Type of data set: functional.
The nature of data set [2]: Partition coefficient, log P of compound. The note with it: octanol/water. It counts as physicochemical.
In data set [3] the test system is Pseudomonas aeruginosa. In words: Antibacterial activity against carbapenem-reistant Pseudomonas aeruginosa PAO1 assessed as bacterial growth inhibition after 20 hrs by liquid microdilution method. Type of data set: functional. The note with it: PAO1, 20 h. In general terms: In broth dilution the organism is exposed to a series of concentrations in liquid medium.

Data set [4] is described as follows: Haemolytic activity in rabbit RBCs at 50 uM relative to control. It counts as ADME, cell-based, Oryctolagus cuniculus, Erythrocyte. To be noted: rabbit red blood cells (erythrocytes), read-out: Activity.
Data set [5] concerns Pseudomonas aeruginosa. In words: Antibacterial activity against Pseudomonas aeruginosa PAO1 assessed as bacterial growth inhibition after 20 hrs by liquid microdilution method. Type of data set: functional.
Data set [6] concerns Bacillus subtilis. In words: Antibacterial activity against Bacillus subtilis 168 assessed as bacterial growth inhibition after 20 hrs by liquid microdilution method. It counts as functional. To be noted: Bacillus subtilis, 168, 20 h.
Data set [7] concerns Escherichia coli. In words: Antimicrobial activity against ESBL-producing Escherichia coli assessed as bacterial growth inhibition after 20 hrs by liquid microdilution method. Type of data set: functional.
For data set [8], the system named is Staphylococcus aureus. In words: Antibacterial activity against Staphylococcus aureus FDA 209P assessed as bacterial growth inhibition after 20 hrs by liquid microdilution method. It counts as functional.
Data set [9] has as its system Salmonella typhimurium. In words: Antibacterial activity against Salmonella typhimurium LT2 assessed as bacterial growth inhibition after 20 hrs by liquid microdilution method. Type of data set: functional, Salmonella enterica subsp. enterica serovar Typhimurium. The note with it: Salmonella enterica, LT2, 20 h.
The test system of data set [10] is Escherichia coli. In words: Antimicrobial activity against carbapenem-resistant Escherichia coli assessed as bacterial growth inhibition after 20 hrs by liquid microdilution method. Type of data set: functional.
In data set [11] the test system is Escherichia coli. In words: Induction of membrane permeabilization in Escherichia coli K12 W3110 assessed as increase in potassium efflux. Type of data set: functional, organism-based.
The subject of data set [12] is Escherichia coli. In words: Induction of membrane permeabilization in Escherichia coli K12 W3110 assessed as decrease in cell viability. It counts as functional, organism-based.
Data set [13] relates to Staphylococcus aureus. In words: Induction of membrane permeabilization in Staphylococcus aureus FDA 209P assessed as increase in potassium efflux. Type of data set: functional, organism-based.
Data set [14] has as its system Staphylococcus aureus. In words: Induction of membrane permeabilization in Staphylococcus aureus FDA 209P assessed as decrease in cell viability. It counts as functional, organism-based.

Turning to `CCC(=O)O[C@@H]1[C@@H](OC(=O)CC)[C@H]2O[C@H]3[C@H](OC(=O)CC)[C@@H](OC(=O)CC)[C@@H](O[C@H]4[C@H](OC(=O)CC)[C@@H](OC(=O)CC)[C@@H](O[C@H]5[C@@H](OC(=O)CC)[C@@H](OC(=O)CC)[C@H](O[C@H]6[C@H](OC(=O)CC)[C@@H](OC(=O)CC)[C@@H](O[C@H]7[C@H](OC(=O)CC)[C@@H](OC(=O)CC)[C@@H](O[C@H]8[C@H](OC(=O)CC)[C@@H](OC(=O)CC)[C@@H](O[C@@H]1[C@@H](Cn1cc(CN)nn1)O2)O[C@@H]8Cn1cc(CN)nn1)O[C@@H]7Cn1cc(CN)nn1)O[C@@H]6Cn1cc(CN)nn1)O[C@@H]5Cn1cc(CN)nn1)O[C@@H]4Cn1cc(CN)nn1)O[C@@H]3Cn1cc(CN)nn1`, the minimum inhibitory concentration (MIC) in data set [1] (K-12 substr. W3110, 20 h) is 2 µM (≈ 4.96 µg/mL); in data set [3], 6 µM (≈ 14.9 µg/mL); in data set [5] (PAO1, 20 h), 2 µM (≈ 4.96 µg/mL); in [6], 2 µM (≈ 4.96 µg/mL); in data set [7], 6 µM (≈ 14.9 µg/mL); in data set [8], 5 µM (≈ 12.4 µg/mL). The minimal inhibitory concentration (MIC) in data set [9] was 5 µM (≈ 12.4 µg/mL); in data set [10] it was 11 µM (≈ 27.3 µg/mL). In [2], this compound yielded a lipophilicity (logP) of -0.89. In addition, the hemolysis at 50 µM in [4] turned out to be 20%.
As to `CC(C)C[C@@H]1NC(=O)[C@H](CCCN)NC(=O)[C@H](C(C)C)NC(=O)[C@@H]2CCCN2C(=O)[C@@H](Cc2ccccc2)NC(=O)[C@H](CC(C)C)NC(=O)[C@H](CCCN)NC(=O)[C@H](C(C)C)NC(=O)[C@@H]2CCCN2C(=O)[C@@H](Cc2ccccc2)NC1=O` (cyclo(V[Orn]L[dF]PV[Orn]L[dF]P)), the MIC in data set [1] (K-12 substr. W3110, 20 h) was found to be 28 µM (≈ 32 µg/mL); in data set [8], 4 µM (≈ 4.57 µg/mL).
With `CCCC(=O)O[C@@H]1[C@@H](OC(=O)CCC)[C@H]2O[C@H]3[C@H](OC(=O)CCC)[C@@H](OC(=O)CCC)[C@@H](O[C@H]4[C@H](OC(=O)CCC)[C@@H](OC(=O)CCC)[C@@H](O[C@H]5[C@H](OC(=O)CCC)[C@@H](OC(=O)CCC)[C@@H](O[C@H]6[C@H](OC(=O)CCC)[C@@H](OC(=O)CCC)[C@@H](O[C@H]7[C@H](OC(=O)CCC)[C@@H](OC(=O)CCC)[C@@H](O[C@H]8[C@H](OC(=O)CCC)[C@@H](OC(=O)CCC)[C@@H](O[C@H]9[C@H](OC(=O)CCC)[C@@H](OC(=O)CCC)[C@@H](O[C@@H]1[C@@H](Cn1cc(CN)nn1)O2)O[C@@H]9Cn1cc(CN)nn1)O[C@@H]8Cn1cc(CN)nn1)O[C@@H]7Cn1cc(CN)nn1)O[C@@H]6Cn1cc(CN)nn1)O[C@@H]5Cn1cc(CN)nn1)O[C@@H]4Cn1cc(CN)nn1)O[C@@H]3Cn1cc(CN)nn1`, the minimum inhibitory concentration (MIC) in data set [1] (K-12 substr. W3110, 20 h) was above 32 µM; in data set [5] (PAO1, 20 h), above 32 µM; in data set [6], above 32 µM; in data set [8], above 32 µM; in data set [9] it was above 32 µM. For the same compound, the result in data set [11], in data set [12], in [13] and in data set [14] was Active. Moreover, the logP in data set [2] was -0.06. The hemolysis at 50 µM in data set [4] worked out at 102%.
As for COLISTIN, the MIC in [1] (K-12 substr. W3110) turned out to be 0.7 µM; in data set [5] it was 2 µM.
As to `CC(C)CC(=O)O[C@@H]1[C@@H](OC(=O)CC(C)C)[C@H]2O[C@H]3[C@H](OC(=O)CC(C)C)[C@@H](OC(=O)CC(C)C)[C@@H](O[C@H]4[C@H](OC(=O)CC(C)C)[C@@H](OC(=O)CC(C)C)[C@@H](O[C@H]5[C@H](OC(=O)CC(C)C)[C@@H](OC(=O)CC(C)C)[C@@H](O[C@H]6[C@H](OC(=O)CC(C)C)[C@@H](OC(=O)CC(C)C)[C@@H](O[C@H]7[C@H](OC(=O)CC(C)C)[C@@H](OC(=O)CC(C)C)[C@@H](O[C@H]8[C@H](OC(=O)CC(C)C)[C@@H](OC(=O)CC(C)C)[C@@H](O[C@H]9[C@H](OC(=O)CC(C)C)[C@@H](OC(=O)CC(C)C)[C@@H](O[C@@H]1[C@@H](Cn1cc(CN)nn1)O2)O[C@@H]9Cn1cc(CN)nn1)O[C@@H]8Cn1cc(CN)nn1)O[C@@H]7Cn1cc(CN)nn1)O[C@@H]6Cn1cc(CN)nn1)O[C@@H]5Cn1cc(CN)nn1)O[C@@H]4Cn1cc(CN)nn1)O[C@@H]3Cn1cc(CN)nn1`, the MIC was above 31 µM in data set [1] (K-12 substr. W3110, 20 h); above 43 µM in data set [5] (PAO1, 20 h); above 31 µM in data set [6]; above 31 µM in data set [8]; above 43 µM in [9]. This compound also displayed a log partition coefficient (logP) in [2] of 0.6. Also, the hemolysis at 50 µM in [4] is 87%.
On to `NCc1cn(C[C@H]2O[C@@H]3O[C@H]4[C@H](O)[C@@H](O)[C@@H](O[C@H]5[C@H](O)[C@@H](O)[C@@H](O[C@H]6[C@H](O)[C@@H](O)[C@@H](O[C@H]7[C@H](O)[C@@H](O)[C@@H](O[C@H]8[C@H](O)[C@@H](O)[C@@H](O[C@H]9[C@H](O)[C@@H](O)[C@@H](O[C@H]%10[C@@H](O)[C@H](O)[C@@H](O[C@H]2[C@H](O)[C@H]3O)O[C@@H]%10Cn2cc(CN)nn2)O[C@@H]9Cn2cc(CN)nn2)O[C@@H]8Cn2cc(CN)nn2)O[C@@H]7Cn2cc(CN)nn2)O[C@@H]6Cn2cc(CN)nn2)O[C@@H]5Cn2cc(CN)nn2)O[C@@H]4Cn2cc(CN)nn2)nn1`, for which the minimal inhibitory concentration (MIC) in data set [1] (K-12 substr. W3110, 20 h) was above 45 µM; in [5] (PAO1, 20 h), above 45 µM; in [6] it was 22 µM (≈ 42.6 µg/mL); in data set [8] it was above 45 µM; in [9] it was above 45 µM. In addition, the logP in data set [2] was -2.66. Moreover, the hemolysis at 50 µM in data set [4] is 0%.
Consider `CC(C)C(=O)O[C@@H]1[C@@H](OC(=O)C(C)C)[C@H]2O[C@H]3[C@H](OC(=O)C(C)C)[C@@H](OC(=O)C(C)C)[C@@H](O[C@H]4[C@H](OC(=O)C(C)C)[C@@H](OC(=O)C(C)C)[C@@H](O[C@H]5[C@H](OC(=O)C(C)C)[C@@H](OC(=O)C(C)C)[C@@H](O[C@H]6[C@H](OC(=O)C(C)C)[C@@H](OC(=O)C(C)C)[C@@H](O[C@H]7[C@H](OC(=O)C(C)C)[C@@H](OC(=O)C(C)C)[C@@H](O[C@H]8[C@H](OC(=O)C(C)C)[C@@H](OC(=O)C(C)C)[C@@H](O[C@H]9[C@H](OC(=O)C(C)C)[C@@H](OC(=O)C(C)C)[C@@H](O[C@@H]1[C@@H](Cn1cc(CN)nn1)O2)O[C@@H]9Cn1cc(CN)nn1)O[C@@H]8Cn1cc(CN)nn1)O[C@@H]7Cn1cc(CN)nn1)O[C@@H]6Cn1cc(CN)nn1)O[C@@H]5Cn1cc(CN)nn1)O[C@@H]4Cn1cc(CN)nn1)O[C@@H]3Cn1cc(CN)nn1`, for which the minimal inhibitory concentration (MIC) in data set [1] (K-12 substr. W3110, 20 h) is above 32 µM; in data set [5] (PAO1, 20 h) it was 31 µM (≈ 94.8 µg/mL); in data set [6], above 32 µM; in data set [8], above 32 µM; in data set [9], above 31 µM. Also, the logP in data set [2] was 0.24. The hemolysis at 50 µM in [4] was 101%.
As for `CC(=O)O[C@@H]1[C@@H](OC(C)=O)[C@H]2O[C@H]3[C@H](OC(C)=O)[C@@H](OC(C)=O)[C@@H](O[C@H]4[C@H](OC(C)=O)[C@@H](OC(C)=O)[C@@H](O[C@H]5[C@H](OC(C)=O)[C@@H](OC(C)=O)[C@@H](O[C@H]6[C@H](OC(C)=O)[C@@H](OC(C)=O)[C@@H](O[C@H]7[C@H](OC(C)=O)[C@@H](OC(C)=O)[C@@H](O[C@H]8[C@H](OC(C)=O)[C@@H](OC(C)=O)[C@@H](O[C@H]9[C@H](OC(C)=O)[C@@H](OC(C)=O)[C@@H](O[C@@H]1[C@@H](Cn1cc(CN)nn1)O2)O[C@@H]9Cn1cc(CN)nn1)O[C@@H]8Cn1cc(CN)nn1)O[C@@H]7Cn1cc(CN)nn1)O[C@@H]6Cn1cc(CN)nn1)O[C@@H]5Cn1cc(CN)nn1)O[C@@H]4Cn1cc(CN)nn1)O[C@@H]3Cn1cc(CN)nn1`, the MIC in data set [1] (K-12 substr. W3110, 20 h) was above 36 µM; in data set [5] (PAO1, 20 h), above 36 µM; in data set [6], above 36 µM; in [8], above 36 µM; in [9], above 36 µM. Moreover, the result in [11], in data set [12], in data set [13] and in data set [14] was Active. Further, the logP in [2] was -2.2. The hemolysis at 50 µM in data set [4] stood at 1%.
Take `CCCCCCCCCC(=O)N[C@@H](Cc1c[nH]c2ccccc12)C(=O)N[C@H](CC(N)=O)C(=O)N[C@@H](CC(=O)O)C(=O)N[C@@H]1C(=O)NCC(=O)N[C@@H](CCCN)C(=O)N[C@@H](CC(=O)O)C(=O)N[C@H](C)C(=O)N[C@@H](CC(=O)O)C(=O)NCC(=O)N[C@H](CO)C(=O)N[C@@H]([C@H](C)CC(=O)O)C(=O)N[C@@H](CC(=O)c2ccccc2N)C(=O)O[C@@H]1C`: the MIC in data set [8] stood at 3 µM (≈ 4.86 µg/mL).

Usually MIC stands for the lowest concentration found to suppress growth. Usually logP stands for the decadic logarithm of the partition coefficient of the neutral form, usually between octanol and water.
